Among the data in US12344610B2, “APOL1 inhibitors and methods of use” (Maze Therapeutics, Inc., priority 2022, dated 2025) are EC50 values, retold here.

Where two headings read alike, the source gives them in different places.

Common to all, as to assay type: cell-based
Common to all, as to conditions: geometric mean of at least 2 assay runs, † = single assay run

In test [1] the test system is HEK293 cells overexpressing APOL1 G2. Description: APOL1 G2 HEK293 cell rescue assay (reversal of cell death caused by overexpression of APOL1). Summed up:
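Each compound tested in duplicate wells on one plate per run, with values usually the geometric mean across at least two runs on different days, occasionally from one run only. Read-out: concentration giving half-maximal rescue of APOL1 G2 overexpression-induced death of HEK293 cells.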

The test system of test [2] is Trypanosoma brucei Lister 427 VSG221 with APOL1 G0 recombinant protein. Description: APOL1 G0 trypanosome cell rescue assay (Example B5). An outline of the steps: (§1)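 Viability read by CellTiter-Glo luminescence after 20 h co-incubation (37° C, 5% CO2) of 250 trypanosomes/well in modified HMI-9 with test compound (duplicate 11-point, 2-fold dilutions, 0.4% DMSO) and APOL1 protein, […]. Protein: mature residues 28-398, E. coli inclusion-body refolded, tag cleaved, in DDM.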

Test [3] concerns Trypanosoma brucei Lister 427 VSG221 with APOL1 G1 recombinant protein. Description: APOL1 G1 trypanosome cell rescue assay (Example B5). Summed up:
as §1

The mark [4] stands for this setting: Homo sapiens, HEK293, HEK293 overexpressing APOL1 G2.
Where [5] appears, read: Trypanosoma brucei, 20 h, read-out: APOL1 G0 Trypanosome Rescue EC50, Trypanosoma brucei Lister 427 VSG221 with APOL1 G0 recombinant protein, 20 hours, CellTiter-Glo.
The mark [6] stands for this setting: Trypanosoma brucei, 20 h, read-out: APOL1 G1 Trypanosome Rescue EC50, Trypanosoma brucei Lister 427 VSG221 with APOL1 G1 recombinant protein, 20 hours, CellTiter-Glo.
The mark [7] stands for this setting: read-out: APOL1 G0 Trypanosome Rescue EC50, Trypanosoma brucei Lister 427 VSG221 with APOL1 G0 recombinant protein, 20 hours, CellTiter-Glo.
The mark [8] stands for this setting: read-out: APOL1 G1 Trypanosome Rescue EC50, Trypanosoma brucei Lister 427 VSG221 with APOL1 G1 recombinant protein, 20 hours, CellTiter-Glo.

One may read the EC50 as the midpoint of the concentration-response curve. `C[C@@H](COc1ccc(S(C)(=O)=O)cc1)N1CCC2(CC1)C(=O)Nc1ccc(Cl)cc12` (single isomer, unassigned) [Compound 10]: the EC50 in test [1] (setting [4]) amounted to 90.3 nM; in test [2] (setting [5]), 351 nM; in test [3] (setting [6]), 352 nM.
In the same order, the values of `C[C@@H](COc1ccc(S(C)(=O)=O)cc1)N1CCC2(CC1)C(=O)Nc1ccccc12` (single isomer, unassigned) [Compound 12] are 307 nM, 1930 nM and 1950 nM.
In the same order, the values of `C[C@@H](CN1CCC2(CC1)C(=O)Nc1ccccc12)Oc1ccc(S(C)(=O)=O)cc1` (single isomer, unassigned) [Compound 13] are 3010 nM, greater than 4000 nM and greater than 4000 nM.
Consider `O=C1NCC2c3ccc(OCCN4CCC5(CC4)C(=O)Nc4ccc(Cl)cc45)cc3CCN12` (single isomer, unassigned) [Compound 116, (S) or (R)-5-chloro-1′-[2-({3-oxo-1H,2H,3H,5H,6H,10bH-imidazo[4,3-a]isoquinolin-8-yl}oxy)ethyl]-1,2-dihydrospiro[indole-3,4′-piperidin]-2-one], for which the EC50 was determined as 81.8 nM in test [1] (setting [4]), 149 nM in test [2] (setting [7]) and 209 nM in test [3] (setting [8]).
As for `O=C1NCC2c3ccc(OCCN4CCC5(CC4)C(=O)Nc4ccc(Cl)cc45)cc3CCN12` (single isomer, unassigned) [Compound 117, (R) or (S)-5-chloro-1′-[2-({3-oxo-1H,2H,3H,5H,6H,10bH-imidazo[4,3-a]isoquinolin-8-yl}oxy)ethyl]-1,2-dihydrospiro[indole-3,4′-piperidin]-2-one], the half-maximal effective concentration (EC50) in test [1] (HEK293 overexpressing APOL1 G2) turned out to be 81.5 nM; in test [2] (setting [7]), 309 nM; in test [3] (setting [8]), 423 nM.
For the compound `N#Cc1ccc2c(c1)C1(CCN(CCOc3ccc4c(c3)CCN3C(=O)NCC43)CC1)C(=O)N2` (single isomer, unassigned) [Compound 120, (R) or (S)-2-oxo-1′-[2-({3-oxo-1H,2H,3H,5H,6H,10bH-imidazo[4,3-a]isoquinolin-8-yl}oxy)ethyl]-1,2-dihydrospiro[indole-3,4′-piperidine]-5-carbonitrile], the EC50 in test [1] (HEK293 overexpressing APOL1 G2) came out at 324 nM; in test [2] (setting [5]), 807 nM; in test [3] (setting [6]), 1250 nM.
With `O=C1CCC2c3ccc(OCCN4CCC5(CC4)C(=O)Nc4ccc(Cl)cc45)cc3CCN12` (single isomer, unassigned) [Compound 122, (S) or (R)-5-chloro-1′-[2-({3-oxo-1H,2H,3H,5H,6H,10bH-pyrrolo[2,1-a]isoquinolin-8-yl}oxy)ethyl]-1,2-dihydrospiro[indole-3,4′-piperidin]-2-one], the EC50 in test [1] (setting [4]) worked out at 87.5 nM; in test [2] (setting [5]), 252 nM; in test [3] (setting [6]), 337 nM.
In the case of `O=C1CCC2c3ccc(OCCN4CCC5(CC4)C(=O)Nc4ccc(Cl)cc45)cc3CCN12` (single isomer, unassigned) [Compound 123, (R) or (S)-5-chloro-1′-[2-({3-oxo-1H,2H,3H,5H,6H,10bH-pyrrolo[2,1-a]isoquinolin-8-yl}oxy)ethyl]-1,2-dihydrospiro[indole-3,4′-piperidin]-2-one], the EC50 is 79.5 nM in test [1] (HEK293 overexpressing APOL1 G2), 178 nM in test [2] (setting [7]) and 258 nM in test [3] (setting [8]).
`CC(c1ccc(OCCN2CCC3(CC2)C(=O)Nc2ccc(C#N)cc23)cc1)S(C)(=O)=O` (single isomer, unassigned) [Compound 134, (S) or (R)-1′-{2-[4-(1-methanesulfonylethyl)phenoxy]ethyl}-2-oxo-1,2-dihydrospiro[indole-3,4′-piperidine]-5-carbonitrile]: the half-maximal effective concentration (EC50) came out at 199 nM in test [1] (setting [4]), 851 nM in test [2] (setting [5]) and 991 nM in test [3] (setting [6]).
For `CC(c1ccc(OCCN2CCC3(CC2)C(=O)Nc2ccc(C#N)cc23)cc1)S(C)(=O)=O` (single isomer, unassigned) [Compound 135, (R) or (S)-1′-{2-[4-(1-methanesulfonylethyl)phenoxy]ethyl}-2-oxo-1,2-dihydrospiro[indole-3,4′-piperidine]-5-carbonitrile], the EC50 in test [1] (HEK293 overexpressing APOL1 G2) worked out at 211 nM; in test [2] (setting [7]), 1080 nM; in test [3] (setting [8]) it was 1200 nM.
For `CC(c1c(F)cc(OCCN2CCC3(CC2)C(=O)Nc2ccc(C#N)cc23)cc1F)S(C)(=O)=O` (single isomer, unassigned) [Compound 138, (S) or (R)-1′-{2-[3,5-difluoro-4-(1-methanesulfonylethyl)phenoxy]ethyl}-2-oxo-1,2-dihydrospiro[indole-3,4′-piperidine]-5-carbonitrile], the values for the concentration giving a half-maximal response (EC50) in test [1] (setting [4]), in test [2] (setting [5]) and in test [3] (setting [6]) were 78.2 nM, 326 nM and 585 nM, respectively.
For the compound `CC(c1c(F)cc(OCCN2CCC3(CC2)C(=O)Nc2ccc(C#N)cc23)cc1F)S(C)(=O)=O` (single isomer, unassigned) [Compound 139, (R) or (S)-1′-{2-[3,5-difluoro-4-(1-methanesulfonylethyl)phenoxy]ethyl}-2-oxo-1,2-dihydrospiro[indole-3,4′-piperidine]-5-carbonitrile], the EC50 amounted to 133 nM in test [1] (HEK293 overexpressing APOL1 G2), 335 nM in test [2] (setting [7]) and 537 nM in test [3] (setting [8]).
Consider `CC(c1c(F)cc(OCCN2CCC3(CC2)C(=O)Nc2ccc(Cl)cc23)cc1F)S(C)(=O)=O` (single isomer, unassigned) [Compound 142, (S) or (R)-5-chloro-1′-{2-[3,5-difluoro-4-(1-methanesulfonylethyl)phenoxy]ethyl}-1,2-dihydrospiro[indole-3,4′-piperidin]-2-one], for which the EC50 turned out to be 48.3 nM in test [1] (setting [4]), 63.5 nM in test [2] (setting [5]) and 98.3 nM in test [3] (setting [6]).
Consider `CC(c1c(F)cc(OCCN2CCC3(CC2)C(=O)Nc2ccc(Cl)cc23)cc1F)S(C)(=O)=O` (single isomer, unassigned) [Compound 143, (R) or (S)-5-chloro-1′-{2-[3,5-difluoro-4-(1-methanesulfonylethyl)phenoxy]ethyl}-1,2-dihydrospiro[indole-3,4′-piperidin]-2-one], for which the 50% effective concentration (EC50) turned out to be 36.9 nM in test [1] (HEK293 overexpressing APOL1 G2), 41.1 nM in test [2] (setting [7]) and 64.1 nM in test [3] (setting [8]).
For `CN=S(C)(=O)c1ccc(OCCN2CCC3(CC2)C(=O)Nc2ccc(Cl)cc23)cc1` (single isomer, unassigned) [Compound 148, (S) or (R)-5-chloro-1′-(2-{4-[methyl(methylimino)oxo-λ^6-sulfanyl]phenoxy}ethyl)-1,2-dihydrospiro[indole-3,4′-piperidin]-2-one], the results for the EC50 in test [1] (setting [4]), in test [2] (setting [5]) and in test [3] (setting [6]) were 107 nM, 140 nM and 201 nM, respectively.
`CN=S(C)(=O)c1ccc(OCCN2CCC3(CC2)C(=O)Nc2ccc(Cl)cc23)cc1` (single isomer, unassigned) [Compound 149, (R) or (S)-5-chloro-1′-(2-{4-[methyl(methylimino)oxo-λ^6-sulfanyl]phenoxy}ethyl)-1,2-dihydrospiro[indole-3,4′-piperidin]-2-one]: the EC50 in test [1] (HEK293 overexpressing APOL1 G2) is 101 nM; in test [2] (setting [7]), 117 nM; in test [3] (setting [8]) it was 174 nM.
Take `CN=S(C)(=O)c1ccc(OCCN2CCC3(CC2)C(=O)Nc2ccc(C#N)cc23)cc1` (single isomer, unassigned) [Compound 151, (S) or (R)-1′-(2-{4-[methyl(methylimino)oxo-λ^6-sulfanyl]phenoxy}ethyl)-2-oxo-1,2-dihydrospiro[indole-3,4′-piperidine]-5-carbonitrile]: the figures for the EC50 in test [1] (setting [4]), in test [2] (setting [5]) and in test [3] (setting [6]) were 397 nM, 1040 nM and 1330 nM, respectively.
In the case of `CN=S(C)(=O)c1ccc(OCCN2CCC3(CC2)C(=O)Nc2ccc(C#N)cc23)cc1` (single isomer, unassigned) [Compound 152, (R) or (S)-1′-(2-{4-[methyl(methylimino)oxo-λ^6-sulfanyl]phenoxy}ethyl)-2-oxo-1,2-dihydrospiro[indole-3,4′-piperidine]-5-carbonitrile], the results for the concentration giving a half-maximal response (EC50) in test [1] (HEK293 overexpressing APOL1 G2), in test [2] (setting [7]) and in test [3] (setting [8]) were 405 nM, 1050 nM and 1530 nM, respectively.
Regarding `O=C1Nc2ccc(Cl)cc2C12CCN(CCOc1ccc(C3CCCS3(=O)=O)cc1)CC2` (single isomer, unassigned) [Compound 176, (S) or (R)-2-[4-(2-{5-chloro-2-oxo-1,2-dihydrospiro[indole-3,4′-piperidin]-1′-yl}ethoxy)phenyl]-1λ^6-thiolane-1,1-dione], the results for the EC50 in test [1] (setting [4]), in test [2] (setting [7]) and in test [3] (setting [6]) were 46.9 nM, 120 nM and 177 nM, respectively.
Consider `O=C1Nc2ccc(Cl)cc2C12CCN(CCOc1ccc(C3CCCS3(=O)=O)cc1)CC2` (single isomer, unassigned) [Compound 177, (R) or (S)-2-[4-(2-{5-chloro-2-oxo-1,2-dihydrospiro[indole-3,4′-piperidin]-1′-yl}ethoxy)phenyl]-1λ^6-thiolane-1,1-dione], for which the 50% effective concentration (EC50) in test [1] (HEK293 overexpressing APOL1 G2) amounted to 78.2 nM; in test [2] (setting [7]), 260 nM; in test [3] (setting [8]) it was 314 nM.
